Holding throughout (assay): antimicrobial activity, serial dilution method on agar plate
Format in all cases: cell-based

For experiment [1], the system named is Escherichia Coli NIHJ JC-2 (IFO 12734). Conditions: for MIC: Escherichia coli, read-out: Minimum Inhibitory Concentration. On the procedure:
(§1) The antimicrobial activity of the following test compounds on various test organisms listed below was determined by the serial dilution method on agar plate (Heart Infusion agar produced by Difco Co.) (see CHEMOTHERAPY 22, pp. 1126-1128 (1974)), and the minimum inhibitory concentrations (mcg/ml) obtained are shown in Table 1 below.
(§2) A sample of each test organism was prepared so that the population of the organism was 1×10^8 cells/ml (O.D. 660 mμ=0.07 to 0.16) and 1×10^6 cells/ml (which was obtained by diluting the above 1×10^8 cells/ml preparation).

In another experiment the test system is Klebsiella pneumoniae. On the procedure: as §1, §2
A further experiment relates to Proteus rettgeri NIH 96. Conditions: Providencia rettgeri. On the procedure:
as §1, §2

The subject of experiment [2] is Pseudomonas aeruginosa ATCC 10145. The protocol: as §1, §2
Experiment [3] has as its system Pseudomonas aeruginosa E-2. The protocol:
as §1, §2

Experiment [4] relates to Pseudomonas aeruginosa NCTC 10490. The protocol: as §1, §2
The subject of experiment [5] is Salmonella typhi 0-901 (NCTC 8393). Conditions: Salmonella enterica. The protocol:
as §1, §2

For experiment [6], the system named is Serattia marcescens IFO 12648. The protocol:
as §1, §2

The next experiment deals with Shigella Sonnei EW 33. Conditions: read-out: Minimum Inhibitory Concentration. On the procedure:
as §1, §2

The test system of experiment [7] is Staphylococcus aureus FDA 209 P. The protocol: as §1, §2
Experiment [8] concerns Streptococcus pyogenes IID S-23. The protocol: as §1, §2
The mark [9] stands for this setting: inoculum 1 × 10^8 cells/ml, read-out: Minimum Inhibitory Concentration.
Where [10] appears, read: NIH96, inoculum 1 × 10^8 cells/ml, read-out: Minimum Inhibitory Concentration.
Where [11] appears, read: ATCC10145, inoculum 1 × 10^8 cells/ml, read-out: Minimum Inhibitory Concentration.
The mark [12] stands for this setting: E2, inoculum 1 × 10^8 cells/ml, read-out: Minimum Inhibitory Concentration.
[13] abbreviates: NCTC10490, inoculum 1 × 10^8 cells/ml, read-out: Minimum Inhibitory Concentration.
Setting [14] is: read-out: Minimum Inhibitory Concentration, inoculum 1 × 10^8 cells/ml.
[15] abbreviates: FDA209, inoculum 1 × 10^8 cells/ml, read-out: Minimum Inhibitory Concentration.
The mark [16] stands for this setting: NIH96, read-out: Minimum Inhibitory Concentration, inoculum 1 × 10^8 cells/ml.
[17] abbreviates: ATCC10145, read-out: Minimum Inhibitory Concentration, inoculum 1 × 10^8 cells/ml.
Where [18] appears, read: E2, read-out: Minimum Inhibitory Concentration, inoculum 1 × 10^8 cells/ml.
Setting [19] is: NCTC10490, read-out: Minimum Inhibitory Concentration, inoculum 1 × 10^8 cells/ml.
Where [20] appears, read: FDA209, read-out: Minimum Inhibitory Concentration, inoculum 1 × 10^8 cells/ml.
Setting [21] is: read-out: Minimum Inhibitory Concentration, inoculum 1 × 10^6 cells/ml.

SMILES strings stand for the structures. ≈ marks a conversion by molar mass, not a printed value. Counter-ions that a name gives are not always drawn. Like-named read-outs stand apart in the source and are kept apart here.

As to `CN1CCN(c2ccc3c(=O)c(C(=O)O)cn4c3c2CCC4)CC1` [Compound L, 8-(4-Methyl-1-piperazinyl)-6,7-dihydro-1-oxo-1H,5H--benzo[ij]quinolizine-2-carboxylic acid], the MIC stood at 1.6 µg/mL (≈ 4.89 µM) in [1] (inoculum 1 × 10^8 cells/ml); 6.3 µg/mL (≈ 19.2 µM) with Klebsiella pneumoniae (setting [9]); 3.1 µg/mL (≈ 9.47 µM) in the experiment with Proteus rettgeri NIH 96 (setting [10]); 50 µg/mL (≈ 153 µM) in experiment [2] (setting [11]); 50 µg/mL (≈ 153 µM) in experiment [3] (setting [12]); 50 µg/mL (≈ 153 µM) in experiment [4] (setting [13]). In addition, the MIC amounted to 3.1 µg/mL (≈ 9.47 µM) in experiment [5] (setting [14]), 6.3 µg/mL (≈ 19.2 µM) in experiment [6] (setting [9]), 3.1 µg/mL (≈ 9.47 µM) with Shigella Sonnei EW 33 (inoculum 1 × 10^8 cells/ml) and 6.3 µg/mL (≈ 19.2 µM) in [7] (setting [15]).
`O=CN1CCN(c2ccc3c(=O)c(C(=O)O)cn4c3c2CCC4)CC1` [Compound M, 8-(4-Formyl-1-piperazinyl)-6,7-dihydro-1-oxo-1H,5H--benzo[ij]quinolizine-2-carboxylic acid]: the MIC in experiment [1] (inoculum 1 × 10^8 cells/ml) turned out to be 1.6 µg/mL (≈ 4.69 µM); in the experiment with Klebsiella pneumoniae (setting [9]) it was 3.1 µg/mL (≈ 9.08 µM); in the experiment on Proteus rettgeri NIH 96 (setting [10]), 1.6 µg/mL (≈ 4.69 µM); in [2] (setting [11]), 25 µg/mL (≈ 73.2 µM); in experiment [3] (setting [12]), 25 µg/mL (≈ 73.2 µM); in [4] (setting [13]), 12.5 µg/mL (≈ 36.6 µM). For the same compound, the MIC in experiment [5] (setting [14]) was determined as 0.8 µg/mL (≈ 2.34 µM); in [6] (setting [9]), 3.1 µg/mL (≈ 9.08 µM); in the experiment on Shigella Sonnei EW 33 (inoculum 1 × 10^8 cells/ml), 1.6 µg/mL (≈ 4.69 µM); in experiment [7] (setting [15]) it was 3.1 µg/mL (≈ 9.08 µM).
As to `O=C(O)c1cn2c3c(c(N4CCN(C(=O)c5ccccc5)CC4)ccc3c1=O)CCC2` [Compound N, 8-(4-Benzoyl-1-piperazinyl)-6,7-dihydro-1-oxo-1H,5H--benzo[ij]quinolizine-2-carboxylic acid], the MIC in experiment [1] (inoculum 1 × 10^8 cells/ml) came out at 6.3 µg/mL (≈ 15.1 µM); in the experiment on Klebsiella pneumoniae (setting [9]), 6.3 µg/mL (≈ 15.1 µM); in the experiment with Proteus rettgeri NIH 96 (setting [10]) it was 6.3 µg/mL (≈ 15.1 µM); in experiment [2] (setting [11]), 50 µg/mL (≈ 120 µM); in experiment [3] (setting [12]) it was 100 µg/mL (≈ 240 µM); in experiment [4] (setting [13]), 25 µg/mL (≈ 59.9 µM). For the same compound, the MIC turned out to be 1.6 µg/mL (≈ 3.83 µM) in [5] (setting [14]), 12.5 µg/mL (≈ 29.9 µM) in experiment [6] (setting [9]), 3.1 µg/mL (≈ 7.43 µM) in the experiment on Shigella Sonnei EW 33 (inoculum 1 × 10^8 cells/ml) and 3.1 µg/mL (≈ 7.43 µM) in experiment [7] (setting [15]).
Regarding `CS(=O)(=O)N1CCN(c2ccc3c(=O)c(C(=O)O)cn4c3c2CCC4)CC1` [Compound O, 8-(4-Methanesulfonyl-1-piperazinyl)-6,7-dihydro-1-oxo-1H,5H--benzo[ij]quinolizine-2-carboxylic acid], the MIC was 6.3 µg/mL (≈ 16.1 µM) in experiment [1] (inoculum 1 × 10^8 cells/ml); 6.3 µg/mL (≈ 16.1 µM) with Klebsiella pneumoniae (setting [9]); 6.3 µg/mL (≈ 16.1 µM) with Proteus rettgeri NIH 96 (setting [10]); 100 µg/mL (≈ 255 µM) in [2] (setting [11]); 100 µg/mL (≈ 255 µM) in experiment [3] (setting [12]); 25 µg/mL (≈ 63.9 µM) in [4] (setting [13]). The MIC is 1.6 µg/mL (≈ 4.09 µM) in experiment [5] (setting [14]), 12.5 µg/mL (≈ 31.9 µM) in experiment [6] (setting [9]), 6.3 µg/mL (≈ 16.1 µM) in the experiment on Shigella Sonnei EW 33 (inoculum 1 × 10^8 cells/ml) and 3.1 µg/mL (≈ 7.92 µM) in [7] (setting [15]).
As for `O=C(O)c1cn2c3c(c(N4CCNCC4)c(Cl)cc3c1=O)CCC2` [Compound P, 9-Chloro-8-(1-piperazinyl)-6,7-dihydro-1-oxo-1H,5H--benzo[ij]quinolizine-2-carboxylic acid hydrochloride], the MIC in experiment [1] was determined as 1.6 µg/mL; in the experiment with Klebsiella pneumoniae (setting [14]) it was 0.8 µg/mL; in the experiment with Proteus rettgeri NIH 96 (setting [16]) it was 0.4 µg/mL; in [2] (setting [17]), 6.3 µg/mL; in experiment [3] (setting [18]) it was 6.3 µg/mL; in [4] (setting [19]) it was 6.3 µg/mL. Moreover, the MIC in experiment [5] (setting [9]) amounted to 0.8 µg/mL; in experiment [6] (setting [14]), 1.6 µg/mL; in the experiment on Shigella Sonnei EW 33 (inoculum 1 × 10^8 cells/ml), 1.6 µg/mL; in experiment [7] (setting [20]), 6.3 µg/mL.
Take `O=C(O)c1cn2c3c(c(N4CCNCC4)ccc3c1=O)CC2` [Compound Q, 9-(1-Piperazinyl)-6-oxo-1,2-dihydro-6H--pyrrolo[3,2,1-ij]quinoline-5-carboxylic acid hydrochloride]: the MIC in experiment [1] came out at 25 µg/mL; with Klebsiella pneumoniae (setting [14]) it was 12.5 µg/mL; in the experiment with Proteus rettgeri NIH 96 (setting [16]), 25 µg/mL; in [2] (setting [17]), 50 µg/mL; in experiment [3] (setting [18]), 50 µg/mL; in [4] (setting [19]) it was 25 µg/mL. Also, the MIC in experiment [5] (setting [9]) came out at 6.3 µg/mL; in experiment [6] (setting [14]), 6.3 µg/mL; in the experiment on Shigella Sonnei EW 33 (inoculum 1 × 10^8 cells/ml), 3.1 µg/mL; in [7] (setting [20]), 100 µg/mL.
Consider `O=C(O)c1cn2c3c(c(N4CCN(Cc5ccccc5)CC4)ccc3c1=O)CCC2` [Compound R, 8-(4-Benzyl-1-piperazinyl)-6,7-dihydro-1-oxo-1H,5H--benzo[ij]quinolizine-2-carboxylic acid], for which the MIC in [1] (inoculum 1 × 10^8 cells/ml) came to 1.6 µg/mL (≈ 3.97 µM); in the experiment with Klebsiella pneumoniae (setting [9]) it was 3.1 µg/mL (≈ 7.68 µM); in the experiment on Proteus rettgeri NIH 96 (setting [10]), 1.6 µg/mL (≈ 3.97 µM); in experiment [2] (setting [11]) it was 25 µg/mL (≈ 62 µM); in experiment [3] (setting [12]), 25 µg/mL (≈ 62 µM); in experiment [4] (setting [13]), 12.5 µg/mL (≈ 31 µM). Besides, the MIC was found to be 1.6 µg/mL (≈ 3.97 µM) in [5] (setting [14]), 3.1 µg/mL (≈ 7.68 µM) in experiment [6] (setting [9]), 1.6 µg/mL (≈ 3.97 µM) with Shigella Sonnei EW 33 (inoculum 1 × 10^8 cells/ml) and 12.5 µg/mL (≈ 31 µM) in [7] (setting [15]).
In the case of `Cc1ccc(S(=O)(=O)N2CCN(c3ccc4c(=O)c(C(=O)O)cn5c4c3CCC5)CC2)cc1` [Compound S, 8-(4-p-Toluenesulfonyl-1-piperazinyl)-6,7-dihydro-1-oxo-1H,5H--benzo[ij]quinolizine-2-carboxylic acid], the MIC in [1] (inoculum 1 × 10^8 cells/ml) came out at 1.6 µg/mL (≈ 3.42 µM); in the experiment on Klebsiella pneumoniae (setting [9]), 3.1 µg/mL (≈ 6.63 µM); with Proteus rettgeri NIH 96 (setting [10]) it was 3.1 µg/mL (≈ 6.63 µM); in [2] (setting [11]), 25 µg/mL (≈ 53.5 µM); in experiment [3] (setting [12]), 50 µg/mL (≈ 107 µM); in experiment [4] (setting [13]) it was 12.5 µg/mL (≈ 26.7 µM). The MIC amounted to 1.6 µg/mL (≈ 3.42 µM) in experiment [5] (setting [14]), 6.3 µg/mL (≈ 13.5 µM) in [6] (setting [9]), 3.1 µg/mL (≈ 6.63 µM) with Shigella Sonnei EW 33 (inoculum 1 × 10^8 cells/ml) and 6.3 µg/mL (≈ 13.5 µM) in [7] (setting [15]).
Turning to `CC1CCc2c(N3CCNCC3)c(Cl)cc3c(=O)c(C(=O)O)cn1c23` (stereo not drawn) [Compound T, 8-(1-Piperazinyl)-9-chloro-5-methyl-6,7-dihydro-1-oxo-1H,5H--benzo[ij]quinolizine-2-carboxylic acid hydrochloride hydrate], the MIC in experiment [1] is 0.4 µg/mL; in the experiment with Klebsiella pneumoniae (setting [21]) it was 0.4 µg/mL; in the experiment on Klebsiella pneumoniae (setting [14]), 0.4 µg/mL; with Proteus rettgeri NIH 96 (NIH96, read-out: Minimum Inhibitory Concentration, inoculum 1 × 10^6 cells/ml), 0.2 µg/mL; in the experiment with Proteus rettgeri NIH 96 (setting [16]) it was 0.2 µg/mL; in experiment [2] (ATCC10145, read-out: Minimum Inhibitory Concentration, inoculum 1 × 10^6 cells/ml) it was 1.6 µg/mL. Moreover, the MIC in [2] (setting [17]) is 3.1 µg/mL; in experiment [3] (E2, read-out: Minimum Inhibitory Concentration, inoculum 1 × 10^6 cells/ml), 3.1 µg/mL; in [3] (setting [18]), 3.1 µg/mL; in experiment [4] (NCTC10490, read-out: Minimum Inhibitory Concentration, inoculum 1 × 10^6 cells/ml) it was 1.6 µg/mL; in experiment [4] (setting [19]), 1.6 µg/mL; in experiment [5] (inoculum 1 × 10^6 cells/ml, read-out: Minimum Inhibitory Concentration), 0.1 µg/mL. The MIC in experiment [5] (setting [9]) stood at 0.2 µg/mL; in experiment [6] (setting [21]), 1.6 µg/mL; in experiment [6] (setting [14]) it was 1.6 µg/mL; with Shigella Sonnei EW 33 (inoculum 1 × 10^6 cells/ml), 0.2 µg/mL; in the experiment with Shigella Sonnei EW 33 (inoculum 1 × 10^8 cells/ml), 0.2 µg/mL; in experiment [7] (FDA209, read-out: Minimum Inhibitory Concentration, inoculum 1 × 10^6 cells/ml), 1.6 µg/mL. Besides, the MIC came to 1.6 µg/mL in experiment [7] (setting [20]); 3.1 µg/mL in experiment [8] (IIDS23, read-out: Minimum Inhibitory Concentration, inoculum 1 × 10^6 cells/ml); 6.3 µg/mL in experiment [8] (IIDS23, read-out: Minimum Inhibitory Concentration, inoculum 1 × 10^8 cells/ml). For the same compound, in experiment [1] (inoculum 1 × 10^6 cells/ml), the “Minimum Inhibitory Concentration” value stood at 0.4 µg/mL.

(Values after patent US4416884A, “Piperazinylbenzoheterocyclic compounds” (Otsuka Pharmaceutical Co., Ltd., priority 1978, dated 1983).)
